Common to all, as to assay: NCI anticancer screen, dose series, 48 h
Test [1] relates to A498.
Test [2] has as its system RXF 393.
Test [3] deals with OVCAR-4.
Test [4] has as its system PC-3.
The subject of test [5] is UO-31.
The test system of test [6] is HL-60.
For test [7], the system named is M14.
The test system of test [8] is NCI-H460.
The test system of test [9] is RPMI-8226.
Test [10] relates to MDA-MB-231.
For test [11], the system named is U-251.
Test [12] relates to HCT-15.
Test [13] relates to SF-539.
Test [14] relates to OVCAR-3.
For test [15], the system named is NCI-H226.
The test system of test [16] is COLO 205.
The subject of test [17] is HT-29.
In test [18] the test system is IGROV-1.
For test [19], the system named is SK-MEL-5.
Test [20] concerns Malme-3M.

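Compound exposure: 48 hours, 5 concentrations, 96-well plates. GI50: concentration for 50% inhibition of growth.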 The source made the active and inactive calls. Rule as the data show it: active = GI50 up to about 1.1 µM and inactive = higher.

In the case of `CN(C)CCn1c(=O)c2ccc(NCCCN(C)CCCNc3ccc4c(=O)n(CCN(C)C)c(=O)n5c6ccc(O)cc6c(=O)c3c45)c3c(=O)c4cc(O)ccc4n(c1=O)c23`, the GI50 in test [1] is 0.0289 µM (active); in test [2], < 0.0125 µM (active); in test [3], < 0.01 µM (active); in test [4] it was < 0.01 µM (active); in test [5], 0.0107 µM (active); in [6], 0.0342 µM (active). Also, the GI50 in test [7] is 0.147 µM (active); in [8] it was < 0.01 µM (active); in test [9] it was < 0.01 µM (active); in test [10], < 0.0244 µM (active); in [11], < 0.01 µM (active); in test [12] it was less than 0.0173 µM. The GI50 in test [13] is < 0.01 µM (active); in test [14] it was 0.059 µM (active); in [15], < 0.01 µM (active); in test [16], < 0.01 µM (active); in test [17] it was < 0.01 µM (active); in [18] it was < 0.01 µM (active). Also, the results for the GI50 in test [19] and in test [20] were < 0.01 µM (active) and 0.0659 µM (active), respectively.
Take `C=CC1=C(C)c2cc3[nH]c(c4c5nc(cc6[nH]c(cc1n2)c(C)c6CC)C(C)=C5C(=O)[C@@H]4C(=O)OC)[C@@H](CCC(=O)O)[C@@H]3C`: the GI50 in [1] is 2.55 µM (inactive); in test [2] it was 1.29 µM (inactive); in test [3], 2.54 µM (inactive); in [4] it was 3.62 µM (inactive); in test [5], 2.33 µM (inactive); in test [6] it was 1.37 µM (inactive). For the same compound, the GI50 was 3.66 µM (inactive) in [7]; 2.81 µM (inactive) in test [8]; 2 µM (inactive) in test [9]; 11.2 µM (inactive) in test [10]; 3.06 µM (inactive) in test [11]; 2.49 µM in test [12]. For the same compound, the GI50 is 1.86 µM (inactive) in test [13]; 2.04 µM (inactive) in test [14]; 6.01 µM (inactive) in [15]; 4.28 µM (inactive) in test [16]; 8.43 µM (inactive) in test [17]; 7.24 µM (inactive) in [18]. In addition, the GI50 was 1.42 µM (inactive) in test [19] and 12.2 µM (inactive) in test [20].
Take `COc1cc2c(cc1OCCCC(=O)Nc1cc(C(=O)Nc3cc(C(=O)Nc4cc(C(=O)NCCCN(C)C)n(C)n4)n(C)n3)n(C)n1)N=CC1CCCN1C2=O` (stereo not given): the GI50 in test [1] is 23 µM (inactive); in [2] it was 22.4 µM (inactive); in test [3], 16.1 µM (inactive); in test [4], 31.3 µM (inactive); in [5], 4.39 µM (inactive); in test [6] it was 6.14 µM (inactive). Also, the GI50 in [7] is 28 µM (inactive); in [8] it was 41.4 µM (inactive); in test [9] it was 5.74 µM (inactive); in test [10] it was 24.2 µM (inactive); in test [11] it was 9.77 µM (inactive); in test [12], 5.69 µM. Further, the GI50 was 26.2 µM (inactive) in test [13]; 29.9 µM (inactive) in test [14]; 28.4 µM (inactive) in test [15]; 3.53 µM (inactive) in test [16]; 20 µM (inactive) in test [17]; 2.96 µM (inactive) in test [18]. Besides, the figures for the GI50 in test [19] and in test [20] were 19.5 µM (inactive) and 10.8 µM (inactive), respectively.
As for `Brc1cccc(/C=C/CN2CCN(CCOC(c3ccccc3)c3ccccc3)CC2)c1`, the GI50 was 17.5 µM (inactive) in test [1]; 11.6 µM (inactive) in test [2]; 11.7 µM (inactive) in test [3]; 13.2 µM (inactive) in test [4]; 13.1 µM (inactive) in test [5]; 7.45 µM (inactive) in [6]. In addition, the GI50 was 13.2 µM (inactive) in [7]; 13.3 µM (inactive) in [8]; 4.08 µM (inactive) in test [9]; 13.9 µM (inactive) in [10]; 13.6 µM (inactive) in [11]; 15.6 µM in test [12]. For the same compound, the GI50 was 15.7 µM (inactive) in test [13]; 15.4 µM (inactive) in test [14]; 19 µM (inactive) in test [15]; 14.2 µM (inactive) in test [16]; 6.22 µM (inactive) in [17]; 15.9 µM (inactive) in test [18]. Moreover, the GI50 in [19] is 15.1 µM (inactive); in test [20], 16.1 µM (inactive).
In the case of `CCOC(=O)c1cc(C#N)[nH]c1-c1ccsc1`, the GI50 is 42.7 µM (inactive) in [1]; 17.3 µM (inactive) in test [2]; 35.6 µM (inactive) in test [3]; 25.5 µM (inactive) in test [4]; 0.114 µM (active) in test [5]; 16.4 µM (inactive) in test [6]. Also, the GI50 in test [7] was 41.7 µM (inactive); in test [8], 32.2 µM (inactive); in [9], 23.6 µM (inactive); in [10] it was 41.6 µM (inactive); in test [11], 25.8 µM (inactive); in test [12] it was 29.1 µM. Further, the GI50 is 28.6 µM (inactive) in test [13]; 31 µM (inactive) in test [14]; 44.3 µM (inactive) in test [15]; 32.2 µM (inactive) in [16]; 28.8 µM (inactive) in test [17]; 40.4 µM (inactive) in test [18]. Also, the GI50 in test [19] was 34.9 µM (inactive); in test [20], 37.4 µM (inactive).
Regarding `COC(=O)C1=C(OC(=O)/C(=C/c2ccc(Cl)cc2Cl)c2ccc(Cl)cc2Cl)C(C(=O)OC)[C@@]2(O)[C@@H](C(=O)OC)[C@H](C)C[C@@H]1[C@@H]2C(=O)OC` (stereo not given in full), the GI50 was > 100 µM (inactive) in test [1]; 61.8 µM (inactive) in test [2]; > 100 µM (inactive) in [3]; 7.1 µM (inactive) in [4]; > 100 µM (inactive) in test [5]; > 100 µM (inactive) in test [6]. The GI50 in [7] was > 100 µM (inactive); in test [8] it was > 100 µM (inactive); in [9] it was > 100 µM (inactive); in test [10] it was 40 µM (inactive); in [11], > 100 µM (inactive); in test [12], more than 100 µM. For the same compound, the GI50 in test [13], in [14], in test [15], in test [16], in test [17] and in [18] was > 100 µM (inactive) in each case. Further, the GI50 in test [19] and in [20] was > 100 µM (inactive) throughout.
Turning to `COc1cc(/C=[N+](\[O-])c2ccccc2Cl)ccc1OC(=S)S`, the GI50 in test [1] is 18.9 µM (inactive); in test [2] it was 26.4 µM (inactive); in test [3], 3.01 µM (inactive); in test [4] it was 38.2 µM (inactive); in [5], 39.6 µM (inactive); in test [6], 20.1 µM (inactive). Further, the GI50 was 30.9 µM (inactive) in test [7]; 27.2 µM (inactive) in test [8]; 29.2 µM (inactive) in test [9]; 53.3 µM (inactive) in test [10]; 38.5 µM (inactive) in test [11]; 33.2 µM in [12]. The GI50 in test [13] was 68.7 µM (inactive); in test [14], 30.8 µM (inactive); in test [15], 57.4 µM (inactive); in test [16] it was 21.8 µM (inactive); in test [17] it was 42.5 µM (inactive); in [18] it was 49.4 µM (inactive). Further, the GI50 in [19] is 16.6 µM (inactive); in test [20], 38.4 µM (inactive).
In the case of `O=C(CCl)Nc1ccc(C(=O)N/N=C/c2ccc(Cl)cc2)cc1`, the GI50 in [1] was 2.21 µM (inactive); in test [2] it was 0.946 µM (active); in test [3], 2.09 µM (inactive); in test [4], 2.02 µM (inactive); in test [5] it was 4.46 µM (inactive); in test [6], 1.6 µM (inactive). In addition, the GI50 in [7] is 6.41 µM (inactive); in [8] it was 2 µM (inactive); in [9], 2.42 µM (inactive); in test [10] it was 1.94 µM (inactive); in [11], 1.78 µM (inactive); in test [12], 4.63 µM. In addition, the GI50 in test [13] is 2.01 µM (inactive); in test [14], 1.84 µM (inactive); in test [15], 18.6 µM (inactive); in test [16], 0.731 µM (active); in [17], 1.67 µM (inactive); in test [18], 0.728 µM (active). The results for the GI50 in test [19] and in [20] were 5.77 µM (inactive) and 2.01 µM (inactive), respectively.
Take `CC1(C)OCC(C2OC(=O)C(OCc3ccccc3)=C2OCc2ccccc2)O1` (stereo not given): the GI50 in test [1] was 22.1 µM (inactive); in test [2] it was 49.1 µM (inactive); in [3] it was 42.2 µM (inactive); in test [4], 21 µM (inactive); in [5] it was 37.1 µM (inactive); in [6] it was 22.9 µM (inactive). The GI50 in test [7] was 45.5 µM (inactive); in [8], 41 µM (inactive); in test [9], 24 µM (inactive); in test [10] it was 24.6 µM (inactive); in test [11], 39.2 µM (inactive); in [12], 30.9 µM. The GI50 in test [13] was 72.6 µM (inactive); in test [14], 49.2 µM (inactive); in test [15], 32.7 µM (inactive); in test [16], 22.2 µM (inactive); in test [17], 51.4 µM (inactive); in test [18], 64.3 µM (inactive). In addition, the values for the GI50 in test [19] and in [20] were 17.2 µM (inactive) and 29.9 µM (inactive), respectively.
On to `O=c1c2ccccc2sc2cccc(NCCCN3CCN(CCCNc4cccc5sc6ccccc6c(=O)c45)CC3)c12`, for which the GI50 in [1] was > 100 µM (inactive); in [2] it was > 100 µM (inactive); in test [3], > 100 µM (inactive); in test [4], 85.1 µM (inactive); in test [5], > 100 µM (inactive); in [6], > 100 µM (inactive). Further, the GI50 in test [7] is > 100 µM (inactive); in test [8], > 100 µM (inactive); in [9], > 100 µM (inactive); in [10], > 100 µM (inactive); in test [11], > 100 µM (inactive); in test [12], more than 100 µM. For the same compound, the GI50 in [13], in test [14], in test [15], in test [16], in [17] and in [18] was > 100 µM (inactive) each time. In addition, the GI50 in test [19] and in test [20] was > 100 µM (inactive) each time.
